Columns and labels:
Experiment in all cases: relative viability (nuclei count vs DMSO), 5 days (fraction); higher = more cells survive
BGJ398 + Luminespib = compound: CCN1CCN(c2ccc(Nc3cc(N(C)C(=O)Nc4c(Cl)c(OC)cc(OC)c4Cl)ncn3)cc2)CC1 [BGJ398] + CCNC(=O)c1noc(-c2cc(C(C)C)c(O)cc2O)c1-c1ccc(CN2CCOCC2)cc1 [Luminespib] (partner 0.01 µM)
In short: (§1)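 Medians of duplicate plates are given as relative viability. That measure is the nuclei count in treated wells divided by the count in vehicle wells. Counts were taken on 4× images of lung cancer cell lines in 1536-well plates, 5 days after pin-tool dosing the day after seeding with one drug alone or a fixed anchor-drug dose plus five library-drug doses (not always all listed) in √10 steps.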

BGJ398 + AZD7762 = compound: CCN1CCN(c2ccc(Nc3cc(N(C)C(=O)Nc4c(Cl)c(OC)cc(OC)c4Cl)ncn3)cc2)CC1 [BGJ398] + NC(=O)Nc1cc(-c2cccc(F)c2)sc1C(=O)N[C@H]1CCCNC1 [AZD7762] (partner 0.2 µM)
In short: as §1

[1] = compound: C1=CC2=NC=CN=C2C=C1/C=C/3\C(=O)NC(=O)S3 + COc1cccc2cc(-c3nc([C@H]4CC[C@H](C(=O)O)CC4)n4ncnc(N)c34)[nH]c12 [OSI-027] (partner 0.5 µM)
In short: as §1

BGJ398 + Lapatinib = compound: CCN1CCN(c2ccc(Nc3cc(N(C)C(=O)Nc4c(Cl)c(OC)cc(OC)c4Cl)ncn3)cc2)CC1 [BGJ398] + CS(=O)(=O)CCNCc1ccc(-c2ccc3ncnc(Nc4ccc(OCc5cccc(F)c5)c(Cl)c4)c3c2)o1 [Lapatinib] (partner 2 µM)
In short: as §1

| Cell Line | relative viability (BGJ398 + Luminespib; first compound 0.01 µM) | relative viability (BGJ398 + Luminespib; first compound 0.03162 µM) | relative viability (BGJ398 + Luminespib; first compound 0.1 µM) | relative viability (BGJ398 + Luminespib; first compound 0.3162 µM) | relative viability (BGJ398 + Luminespib; first compound 1 µM) | relative viability (BGJ398 + AZD7762; first compound 0.01 µM) | relative viability (BGJ398 + AZD7762; first compound 0.03162 µM) | relative viability (BGJ398 + AZD7762; first compound 0.1 µM) | relative viability (BGJ398 + AZD7762; first compound 0.3162 µM) | relative viability (BGJ398 + AZD7762; first compound 1 µM) | relative viability ([1]; first compound 0.02 µM) | relative viability ([1]; first compound 0.06325 µM) | relative viability ([1]; first compound 0.2 µM) | relative viability ([1]; first compound 0.6325 µM) | relative viability ([1]; first compound 2 µM) | relative viability (BGJ398 + Lapatinib; first compound 0.01 µM) | relative viability (BGJ398 + Lapatinib; first compound 0.03162 µM) | relative viability (BGJ398 + Lapatinib; first compound 0.1 µM) | relative viability (BGJ398 + Lapatinib; first compound 0.3162 µM) | relative viability (BGJ398 + Lapatinib; first compound 1 µM) |
| --- | --- | --- | --- | --- | --- | --- | --- | --- | --- | --- | --- | --- | --- | --- | --- | --- | --- | --- | --- | --- |
| 201T | 1.24 | 0.976 | 1.07 | 1.04 | 0.979 | 0.657 | 0.595 | 0.63 | 0.521 | 0.747 | 0.664 | 0.682 | 0.714 | 0.671 | 0.23 | 1.14 | 1.02 | 0.997 | 1.02 | 0.697 |
| A549 |  |  |  |  |  |  |  |  |  |  |  |  |  |  |  | 0.885 | 0.99 | 0.952 | 0.919 | 0.819 |
| A-427 | 0.903 | 0.907 | 1 | 0.794 | 0.81 | 0.688 | 0.685 | 0.599 | 0.43 | 0.565 | 0.476 | 0.55 | 0.54 | 0.435 | 0.365 | 1.07 | 1.01 | 1.05 | 0.938 | 0.949 |
| ABC-1 | 0.795 | 0.782 | 0.507 | 0.912 | 0.876 | 0.713 | 0.964 | 0.898 | 0.572 | 1.13 | 0.434 | 0.509 | 0.509 | 0.408 | 0.232 | 1.07 | 1.06 | 1.16 | 1.23 | 1.22 |
| BEN | 0.376 | 0.402 | 0.33 | 0.376 | 0.597 | 0.729 | 0.648 | 0.687 | 0.583 | 0.578 | 0.306 | 0.287 | 0.288 | 0.289 | 0.275 | 0.608 | 0.828 | 0.7 | 0.656 | 0.671 |
| CAL-12T | 0.257 | 0.391 | 0.326 | 0.4 | 0.232 | 0.656 | 0.664 | 0.698 | 0.636 | 0.625 | 0.489 | 0.648 | 0.741 | 0.542 | 0.33 | 0.661 | 0.685 | 0.763 | 0.726 | 0.585 |
| COR-L23 | 0.745 | 0.731 | 0.598 | 0.799 | 0.789 |  |  |  |  |  | 0.781 | 0.898 | 0.873 | 0.74 | 0.497 | 0.887 | 0.903 | 1.15 | 0.992 | 0.908 |
| COR-L 105 | 0.69 | 0.972 | 0.832 | 0.93 | 0.801 |  |  |  |  |  | 0.743 | 0.669 | 0.729 | 0.623 | 0.435 | 0.379 | 0.303 | 0.329 | 0.386 | 0.382 |
| Calu-6 |  |  |  |  |  |  |  |  |  |  |  |  |  |  |  | 1.04 | 1.13 | 1.07 | 1.09 | 1.03 |
| ChaGo-K-1 | 0.595 | 0.673 | 0.724 | 0.577 | 0.651 | 0.904 | 0.85 | 0.903 | 0.898 | 0.881 | 0.567 | 0.58 | 0.544 | 0.424 | 0.352 |  |  |  |  |  |
